Data as given in PubChem BioAssay (NCI).
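Values below derive from 48-hour exposures of cells grown in 96-well plates, with endpoints linearly interpolated between the two concentrations bracketing the appropriate inhibition level. TGI: total growth inhibition.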

These compounds were tested on SNB-78 CNS (assay: NCI tumour cell line growth inhibition, 48 h).

Compound | TGI [µM]
O=C(Nc1ccc(Cl)cc1)C(=O)C(C(=O)c1ccccc1-c1ccccc1)C1OC(=O)c2ccccc21 (stereo not drawn) | > 100

The compounds below were run on LXFL 529 NSCLC (assay: NCI tumour cell line growth inhibition, 48 h).

Compound | TGI [µM]
COc1c2nc(CCl)[nH]c(=O)c2c(OC)c2nc(CCl)[nH]c(=O)c12 | > 100
COc1ccccc1N1C(=O)/C(=C/c2ccc(N(CCC#N)CCC#N)cc2C)N=C1c1cc([N+](=O)[O-])ccc1Cl | > 100
CCCCCCCCC[C@@H]1CC(=O)OCC2OC(O[C@H](CCCCCCCCC)CC(=O)OCC3OC(O[C@H](CCCCCCCCC)CC(=O)OCC4OC(O1)C(O)C(O)C4O)C(O)C(O)C3O)C(O)C(O)C2O (stereo partly drawn) | 18
COc1ccc(-c2onc(-c3ccc([N+](=O)[O-])cc3)c2C2=NCCN2)cc1 | > 100
Cc1cc(Cl)ccc1NC(=O)CCCC(=O)C1CCCC1=O (stereo not drawn) | > 100
COc1ccc(NC(=O)C(=O)C(C(=O)c2ccccc2)C2OC(=O)c3ccccc32)c([N+](=O)[O-])c1 (stereo not drawn) | > 100
O=C(Nc1ccc(Cl)cc1)C(=O)C(C(=O)c1ccccc1-c1ccccc1)C1OC(=O)c2ccccc21 (stereo not drawn) | 34.2

These compounds were tested on DMS 114 small cell lung (assay: NCI tumour cell line growth inhibition, 48 h).

Compound | TGI [µM]
COc1c2nc(CCl)[nH]c(=O)c2c(OC)c2nc(CCl)[nH]c(=O)c12 | > 100
COc1ccccc1N1C(=O)/C(=C/c2ccc(N(CCC#N)CCC#N)cc2C)N=C1c1cc([N+](=O)[O-])ccc1Cl | > 100
CCCCCCCCC[C@@H]1CC(=O)OCC2OC(O[C@H](CCCCCCCCC)CC(=O)OCC3OC(O[C@H](CCCCCCCCC)CC(=O)OCC4OC(O1)C(O)C(O)C4O)C(O)C(O)C3O)C(O)C(O)C2O (stereo partly drawn) | 24
Cc1cc(Cl)ccc1NC(=O)CCCC(=O)C1CCCC1=O (stereo not drawn) | > 100
COc1ccc(NC(=O)C(=O)C(C(=O)c2ccccc2)C2OC(=O)c3ccccc32)c([N+](=O)[O-])c1 (stereo not drawn) | > 100
O=C(Nc1ccc(Cl)cc1)C(=O)C(C(=O)c1ccccc1-c1ccccc1)C1OC(=O)c2ccccc21 (stereo not drawn) | 38.8

What follows are compounds tested on SF-295 CNS (assay: NCI tumour cell line growth inhibition, 48 h).

Compound | TGI [µM]
COc1c2nc(CCl)[nH]c(=O)c2c(OC)c2nc(CCl)[nH]c(=O)c12 | > 100
COc1ccccc1N1C(=O)/C(=C/c2ccc(N(CCC#N)CCC#N)cc2C)N=C1c1cc([N+](=O)[O-])ccc1Cl | > 100
CCCCCCCCC[C@@H]1CC(=O)OCC2OC(O[C@H](CCCCCCCCC)CC(=O)OCC3OC(O[C@H](CCCCCCCCC)CC(=O)OCC4OC(O1)C(O)C(O)C4O)C(O)C(O)C3O)C(O)C(O)C2O (stereo partly drawn) | 27.1
COc1ccc(-c2onc(-c3ccc([N+](=O)[O-])cc3)c2C2=NCCN2)cc1 | > 100
Cc1cc(Cl)ccc1NC(=O)CCCC(=O)C1CCCC1=O (stereo not drawn) | > 100
COc1ccc(NC(=O)C(=O)C(C(=O)c2ccccc2)C2OC(=O)c3ccccc32)c([N+](=O)[O-])c1 (stereo not drawn) | > 100
O=C(Nc1ccc(Cl)cc1)C(=O)C(C(=O)c1ccccc1-c1ccccc1)C1OC(=O)c2ccccc21 (stereo not drawn) | > 100

The compounds below were run on OVCAR-4 ovarian (assay: NCI tumour cell line growth inhibition, 48 h).

Compound | TGI [µM]
COc1c2nc(CCl)[nH]c(=O)c2c(OC)c2nc(CCl)[nH]c(=O)c12 | > 100
COc1ccccc1N1C(=O)/C(=C/c2ccc(N(CCC#N)CCC#N)cc2C)N=C1c1cc([N+](=O)[O-])ccc1Cl | 71.7
CCCCCCCCC[C@@H]1CC(=O)OCC2OC(O[C@H](CCCCCCCCC)CC(=O)OCC3OC(O[C@H](CCCCCCCCC)CC(=O)OCC4OC(O1)C(O)C(O)C4O)C(O)C(O)C3O)C(O)C(O)C2O (stereo partly drawn) | 32.3
COc1ccc(-c2onc(-c3ccc([N+](=O)[O-])cc3)c2C2=NCCN2)cc1 | > 100
Cc1cc(Cl)ccc1NC(=O)CCCC(=O)C1CCCC1=O (stereo not drawn) | > 100
COc1ccc(NC(=O)C(=O)C(C(=O)c2ccccc2)C2OC(=O)c3ccccc32)c([N+](=O)[O-])c1 (stereo not drawn) | > 100
O=C(Nc1ccc(Cl)cc1)C(=O)C(C(=O)c1ccccc1-c1ccccc1)C1OC(=O)c2ccccc21 (stereo not drawn) | > 100

Each compound was assayed on RPMI-8226 leukemia (assay: NCI tumour cell line growth inhibition, 48 h).

Compound | TGI [µM]
COc1c2nc(CCl)[nH]c(=O)c2c(OC)c2nc(CCl)[nH]c(=O)c12 | > 100
COc1ccccc1N1C(=O)/C(=C/c2ccc(N(CCC#N)CCC#N)cc2C)N=C1c1cc([N+](=O)[O-])ccc1Cl | > 100
CCCCCCCCC[C@@H]1CC(=O)OCC2OC(O[C@H](CCCCCCCCC)CC(=O)OCC3OC(O[C@H](CCCCCCCCC)CC(=O)OCC4OC(O1)C(O)C(O)C4O)C(O)C(O)C3O)C(O)C(O)C2O (stereo partly drawn) | 32.7
COc1ccc(-c2onc(-c3ccc([N+](=O)[O-])cc3)c2C2=NCCN2)cc1 | > 100
Cc1cc(Cl)ccc1NC(=O)CCCC(=O)C1CCCC1=O (stereo not drawn) | > 100
COc1ccc(NC(=O)C(=O)C(C(=O)c2ccccc2)C2OC(=O)c3ccccc32)c([N+](=O)[O-])c1 (stereo not drawn) | > 100
O=C(Nc1ccc(Cl)cc1)C(=O)C(C(=O)c1ccccc1-c1ccccc1)C1OC(=O)c2ccccc21 (stereo not drawn) | > 100

These compounds were tested on KM12 colon (assay: NCI tumour cell line growth inhibition, 48 h).

Compound | TGI [µM]
COc1c2nc(CCl)[nH]c(=O)c2c(OC)c2nc(CCl)[nH]c(=O)c12 | > 100
COc1ccccc1N1C(=O)/C(=C/c2ccc(N(CCC#N)CCC#N)cc2C)N=C1c1cc([N+](=O)[O-])ccc1Cl | > 100
CCCCCCCCC[C@@H]1CC(=O)OCC2OC(O[C@H](CCCCCCCCC)CC(=O)OCC3OC(O[C@H](CCCCCCCCC)CC(=O)OCC4OC(O1)C(O)C(O)C4O)C(O)C(O)C3O)C(O)C(O)C2O (stereo partly drawn) | 20.2
COc1ccc(-c2onc(-c3ccc([N+](=O)[O-])cc3)c2C2=NCCN2)cc1 | > 100
Cc1cc(Cl)ccc1NC(=O)CCCC(=O)C1CCCC1=O (stereo not drawn) | > 100
COc1ccc(NC(=O)C(=O)C(C(=O)c2ccccc2)C2OC(=O)c3ccccc32)c([N+](=O)[O-])c1 (stereo not drawn) | > 100
O=C(Nc1ccc(Cl)cc1)C(=O)C(C(=O)c1ccccc1-c1ccccc1)C1OC(=O)c2ccccc21 (stereo not drawn) | 39.4

These compounds were tested on MALME-3M melanoma (assay: NCI tumour cell line growth inhibition, 48 h).

Compound | TGI [µM]
COc1c2nc(CCl)[nH]c(=O)c2c(OC)c2nc(CCl)[nH]c(=O)c12 | > 100
COc1ccccc1N1C(=O)/C(=C/c2ccc(N(CCC#N)CCC#N)cc2C)N=C1c1cc([N+](=O)[O-])ccc1Cl | > 100
CCCCCCCCC[C@@H]1CC(=O)OCC2OC(O[C@H](CCCCCCCCC)CC(=O)OCC3OC(O[C@H](CCCCCCCCC)CC(=O)OCC4OC(O1)C(O)C(O)C4O)C(O)C(O)C3O)C(O)C(O)C2O (stereo partly drawn) | 22.3
COc1ccc(-c2onc(-c3ccc([N+](=O)[O-])cc3)c2C2=NCCN2)cc1 | > 100
Cc1cc(Cl)ccc1NC(=O)CCCC(=O)C1CCCC1=O (stereo not drawn) | > 100
COc1ccc(NC(=O)C(=O)C(C(=O)c2ccccc2)C2OC(=O)c3ccccc32)c([N+](=O)[O-])c1 (stereo not drawn) | > 100
